The source of these data is US20110182850A1, “ORGANIC COMPOUNDS AND THEIR USES” (priority 2009, published 2011).

The target in this assay is T1, HCV NS3-4A serine protease (full-length NS3-4A protein, genotype 1a, strain HCV-1) (Hepatitis C virus genotype 1a, UniProt P26664).
T1 construct: using the full-length NS3-4A protein (genotype 1a, strain HCV-1)
T1 sequence (P26664 1658-1711): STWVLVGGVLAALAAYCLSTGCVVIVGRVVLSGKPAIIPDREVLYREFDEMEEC
T1 sequence (P26664 1027-1657): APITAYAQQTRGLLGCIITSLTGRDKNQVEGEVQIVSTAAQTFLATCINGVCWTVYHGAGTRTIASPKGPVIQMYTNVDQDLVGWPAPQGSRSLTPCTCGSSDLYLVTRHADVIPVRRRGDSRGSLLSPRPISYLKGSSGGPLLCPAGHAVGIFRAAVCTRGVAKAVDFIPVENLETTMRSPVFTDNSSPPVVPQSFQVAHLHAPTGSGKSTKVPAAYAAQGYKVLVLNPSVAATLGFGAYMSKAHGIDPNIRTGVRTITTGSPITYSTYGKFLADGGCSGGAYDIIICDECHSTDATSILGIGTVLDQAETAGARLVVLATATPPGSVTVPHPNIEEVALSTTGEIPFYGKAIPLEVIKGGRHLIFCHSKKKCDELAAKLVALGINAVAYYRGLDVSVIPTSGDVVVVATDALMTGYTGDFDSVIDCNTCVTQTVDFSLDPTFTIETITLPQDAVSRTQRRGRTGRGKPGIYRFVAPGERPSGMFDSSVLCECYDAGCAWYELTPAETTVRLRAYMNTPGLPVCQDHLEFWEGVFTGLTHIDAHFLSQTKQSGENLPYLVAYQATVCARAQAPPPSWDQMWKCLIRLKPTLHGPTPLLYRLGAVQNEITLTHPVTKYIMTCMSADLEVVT
Briefly: HCV NS3-4A protease assay. Format: biochemical. The conditions noted are these: Protease IC50. The procedure: The inhibitory activity of certain compounds of Table A against HCV NS3-4A serine protease is determined in a homogenous assay using the full-length NS3-4A protein (genotype 1a, strain HCV-1) and a commercially available internally-quenched fluorogenic peptide substrate as described by Taliani, M., et al. 1996 Anal. Biochem. 240:60-67, which is incorporated by reference in its entirety.
In the case of `C=C[C@@H]1C[C@]1(NC(=O)[C@@H]1C[C@@]2(CN1C(=O)[C@@H](NC(=O)[C@@H](NC(=O)c1cnccn1)C(C)(C)C)C(C)(C)C)C(C)(C)C21CCC1)C(=O)NS(=O)(=O)C1CC1` [Compound 100, (5R,8S)-N-{(1R,2S)-1-[(cyclopropylsulfonyl)carba-moyl]-2-vinylcyclopropyl}-7-[(2S)-2-({(2S)-3,3-dimethyl-2-[(pyrazin-2-ylcarbonyl)amino]butanoyl}amino)-3,3-dimethylbutanoyl]-10,10-dimethyl-7-azadispiro[3.0.4.1]decane-8-carboxamide], the IC50 is 4 nM.

Consider `C=C[C@H]1C[C@@]1(NC(=O)[C@@H]1C[C@@]2(CN1C(=O)[C@@H](NC(=O)[C@@H](NC(=O)C(C)(C)N1CCOCC1)C1CCCCC1)C(C)(C)C)C(C)(C)C21CCC1)C(=O)NS(=O)(=O)C1CC1` [Compound 101, (5R,8S)-7-[(2S)-2-({cyclohexyl[(2-methyl-2-morpholin-4-ylpropanoyl)amino]acetyl}amino)-3,3-dimethylbutanoyl]-N-{(1R,2S)-1-[(cyclopropylsulfonyl)carba-moyl]-2-vinylcyclopropyl}-10,10-dimethyl-7-azadispiro[3.0.4.1]decane-8-carboxamide], for which the IC50 was found to be 1 nM.

The compound `C=C[C@H]1C[C@@]1(NC(=O)[C@@H]1C[C@@]2(CN1C(=O)[C@@H](NC(=O)[C@@H](NC(=O)C(C)(C)N1CCN(C(C)(C)C)CC1)C1CCCCC1)C(C)(C)C)C(C)(C)C21CCC1)C(=O)NS(=O)(=O)C1CC1` [Compound 102, (5R,8S)-7-[(2S)-2-{[{[2-(4-tert-butylpiperazin-1-yl)-2-methylpropanoyl]amino}(cyclo-hexyl)acetyl]amino}-3,3-dimethylbutanoyl]-N-{(1R,2S)-1-[(cyclopropylsulfonyl)carba-moyl]-2-vinylcyclopropyl}-10,10-dimethyl-7-azadispiro[3.0.4.1]decane-8-carboxamide] came in with an IC50 of 1 nM.

`C=C[C@H]1C[C@@]1(NC(=O)[C@@H]1C[C@@]2(CN1C(=O)[C@@H](NC(=O)[C@@H](NC(=O)c1nccn1C)C1CCCCC1)C(C)(C)C)C(C)(C)C21CCC1)C(=O)NS(=O)(=O)C1CC1` [Compound 103, (5R,8S)-7-{(2S)-2-[(cyclohexyl{[(1-methyl-1H-imidazol-2-yl)carbonyl]amino}acetyl)amino]-3,3-dimethylbutanoyl}-N-{(1R,2S)-1-[(cyclopropylsulfonyl)carba-moyl]-2-vinylcyclopropyl}-10,10-dimethyl-7-azadispiro[3.0.4.1]decane-8-carboxamide] yielded an IC50 of 1.5 nM.

The compound `C=C[C@H]1C[C@@]1(NC(=O)[C@@H]1C[C@@]2(CN1C(=O)[C@@H](NC(=O)[C@@H](NC(=O)C(C)(C)N1CCCCC1)C1CCCCC1)C(C)(C)C)C(C)(C)C21CCC1)C(=O)NS(=O)(=O)C1CC1` [Compound 104, (5R,8S)-7-[(2S)-2-({cyclohexyl[(2-methyl-2-piperidin-1-ylpropanoyl)amino]acetyl}amino)-3,3-dimethylbutanoyl]-N-{(1R,2S)-1-[(cyclopropylsulfonyl)carba-moyl]-2-vinylcyclopropyl}-10,10-dimethyl-7-azadispiro[3.0.4.1]decane-8-carboxamide] gave an IC50 of 0.7 nM.

Compound `C=C[C@H]1C[C@@]1(NC(=O)[C@@H]1C[C@@]2(CN1C(=O)[C@@H](NC(=O)[C@@H](NC(=O)c1ncc[nH]1)C1CCCCC1)C(C)(C)C)C(C)(C)C21CCC1)C(=O)NS(=O)(=O)C1CC1` [Compound 105, (5R,8S)-7-[(2S)-2-({cyclohexyl[(1H-imidazol-2-ylcarbonyl)amino]acetyl}amino)-3,3-dimethylbutanoyl]-N-{(1R,2S)-1-[(cyclopropylsulfonyl)carba-moyl]-2-vinylcyclopropyl}-10,10-dimethyl-7-azadispiro[3.0.4.1]decane-8-carboxamide] yielded an IC50 of 0.9 nM.

For `C=C[C@H]1C[C@@]1(NC(=O)[C@@H]1C[C@@]2(CN1C(=O)[C@@H](NC(=O)[C@@H](NC(=O)c1ccno1)C1CCCCC1)C(C)(C)C)C(C)(C)C21CCC1)C(=O)NS(=O)(=O)C1CC1` [Compound 107, (5R,8S)-7-[(2S)-2-({cyclohexyl[(isoxazol-5-ylcarbonyl)amino]acetyl}amino)-3,3-dimethylbutanoyl]-N-{(1R,2S)-1-[(cyclopropylsulfonyl)carba-moyl]-2-vinylcyclopropyl}-10,10-dimethyl-7-azadispiro[3.0.4.1]decane-8-carboxamide], the IC50 is 0.6 nM.

The compound `C=C[C@H]1C[C@@]1(NC(=O)[C@@H]1C[C@@]2(CN1C(=O)[C@@H](NC(=O)[C@@H](NC(=O)[C@@H]1CCCO1)C1CCCCC1)C(C)(C)C)C(C)(C)C21CCC1)C(=O)NS(=O)(=O)C1CC1` [Compound 108, (5R,8S)-7-{(2S)-2-[(cyclohexyl{[(2S)-tetrahydrofuran-2-ylcarbonyl]amino}acetyl)amino]-3,3-dimethylbutanoyl}-N-{(1R,2S)-1-[(cyclopropylsulfonyl)carba-moyl]-2-vinylcyclopropyl}-10,10-dimethyl-7-azadispiro[3.0.4.1]decane-8-carboxamide] gave an IC50 of 2.5 nM.

Compound `C=C[C@H]1C[C@@]1(NC(=O)[C@@H]1C[C@@]2(CN1C(=O)[C@@H](NC(=O)[C@@H](NC(=O)C1CNC(=O)C1)C1CCCCC1)C(C)(C)C)C(C)(C)C21CCC1)C(=O)NS(=O)(=O)C1CC1` (stereo partly drawn) [Compound 109, (5R,8S)-7-{(2S)-2-[(cyclohexyl{[(5-oxopyrrolidin-3-yl)carbonyl]amino}acetyl)amino]-3,3-dimethylbutanoyl}-N-{(1R,2S)-1-[(cyclopropylsulfonyl)carba-moyl]-2-vinylcyclopropyl}-10,10-dimethyl-7-azadispiro[3.0.4.1]decane-8-carboxamide] yielded an IC50 of 0.6 nM.

Consider `C=C[C@@H]1C[C@]1(NC(=O)[C@@H]1C[C@@]2(CN1C(=O)[C@@H](NC(=O)[C@@H](NC(=O)[C@@H]1CCC(=O)N1)C1CCCCC1)C(C)(C)C)C(C)(C)C21CCC1)C(=O)NS(=O)(=O)C1CC1` [Compound 110, (5R,8S)-7-[(2S)-2-{[(2S)-2-cyclohexyl-2-({[(2S)-5-oxopyrrolidin-2-yl]carbonyl}amino)acetyl]amino}-3,3-dimethylbutanoyl]-N-{(1R,2S)-1-[(cyclopropylsulfonyl)carba-moyl]-2-vinylcyclopropyl}-10,10-dimethyl-7-azadispiro[3.0.4.1]decane-8-carboxamide], for which the IC50 stood at 1.5 nM.

Compound `C=C[C@@H]1C[C@]1(NC(=O)[C@@H]1C[C@@]2(CN1C(=O)[C@@H](NC(=O)[C@@H](NC(=O)[C@H]1CCC(=O)N1)C1CCCCC1)C(C)(C)C)C(C)(C)C21CCC1)C(=O)NS(=O)(=O)C1CC1` [Compound 111, (5R,8S)-7-[(2S)-2-{[(2S)-2-cyclohexyl-2-({[(2R)-5-oxopyrrolidin-2-yl]carbonyl}amino)acetyl]amino}-3,3-dimethylbutanoyl]-N-{(1R,2S)-1-[(cyclopropylsulfonyl)carba-moyl]-2-vinylcyclopropyl}-10,10-dimethyl-7-azadispiro[3.0.4.1]decane-8-carboxamide] gave an IC50 of 2 nM.

Broadly, the IC50 is the midpoint of a concentration-inhibition curve.
